Here are results for 51 compounds from PubChem BioAssay AID489003 (NMMLSC, 2010).

The source made the active and inactive calls.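 Rule for the calls: active = compounds whose weighted score, built from EC50 under 10 micromolar and fitted span over a set limit, tops 52; inactive = the rest.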

Broad substrate specificity ATP-binding cassette transporter ABCG2 (Homo sapiens), sequence (Q9UNQ0 whole entry, looked up): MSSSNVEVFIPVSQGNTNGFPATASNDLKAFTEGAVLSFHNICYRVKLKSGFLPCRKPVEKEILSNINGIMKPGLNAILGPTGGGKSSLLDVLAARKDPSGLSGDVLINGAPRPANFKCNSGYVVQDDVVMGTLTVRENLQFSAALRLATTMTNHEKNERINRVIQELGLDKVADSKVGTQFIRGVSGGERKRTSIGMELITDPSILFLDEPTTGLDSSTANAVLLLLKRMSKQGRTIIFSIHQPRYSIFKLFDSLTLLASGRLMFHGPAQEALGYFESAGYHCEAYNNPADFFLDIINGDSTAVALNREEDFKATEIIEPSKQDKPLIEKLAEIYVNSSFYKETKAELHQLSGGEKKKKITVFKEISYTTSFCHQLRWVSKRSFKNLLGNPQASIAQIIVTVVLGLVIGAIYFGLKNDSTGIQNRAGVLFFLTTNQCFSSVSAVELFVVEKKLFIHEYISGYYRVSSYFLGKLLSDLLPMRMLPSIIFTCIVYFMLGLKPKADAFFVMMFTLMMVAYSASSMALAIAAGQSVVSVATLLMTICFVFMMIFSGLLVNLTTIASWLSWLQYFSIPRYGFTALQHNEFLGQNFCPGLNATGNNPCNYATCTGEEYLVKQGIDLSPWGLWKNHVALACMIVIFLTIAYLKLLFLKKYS

The first experiment concerns the target Broad substrate specificity ATP-binding cassette transporter ABCG2 (Homo sapiens) (UniProt Q9UNQ0). The experiment in a line: blockade of ABCG2-mediated dye efflux – Ig-MXP3 cells, JC-1 substrate, flow cytometry, dose response (AID 489003). The following applies: JC-1 efflux. (In general: In flow cytometry, cells or beads pass a laser one at a time.)
By EC50 is commonly meant the concentration at which the effect is half-maximal. `Cc1nc2cc(-c3ccc(F)cc3)nn2c(N2CCN(C(=O)c3ccco3)CC2)c1C`: the EC50 is 7640 nM.
Consider `Cc1ccc(-c2cc3nc(-c4ccco4)cc(N4CCN(C(=O)c5ccoc5)CC4)n3n2)cc1`, for which the EC50 was 8180 nM.
Consider `Cc1cc(N2CCN(C(=O)c3ccco3)CC2)n2ncc(-c3ccccc3)c2n1`, for which the EC50 was 7520 nM.
Turning to `O=C(C1CCCO1)N1CCN(c2c3c(nc4cc(-c5cccc(F)c5)nn24)CCCC3)CC1` (stereo unspecified), the EC50 entry is “inactive”.
Same read-out and setting: the same measure for `O=C(c1ccsc1)N1CCN(c2cc(-c3ccco3)nc3cc(-c4ccccc4)nn23)CC1`: 2870 nM.
With `CN(C)c1cc(-c2ccco2)nc2cc(-c3ccccc3)nn12`, the EC50 was 8870 nM.
As to `CCc1c(C)nc2cc(-c3cccc(OC)c3)nn2c1N1CCN(C(=O)c2ccoc2)CC1`, the EC50 is 1450 nM.
The same measure, in the same setting: with `Cc1ccc(-c2cc(N3CCN(C(=O)c4ccoc4)CC3)n3nc(-c4ccccc4)cc3n2)o1` the figure was 1450 nM; with `COc1cccc(-c2cc3nc(-c4cccc(C(F)(F)F)c4)cc(N4CCN(C(=O)c5ccoc5)CC4)n3n2)c1`, 788 nM.
The same measure, in the same setting: the same measure for `COc1ccc(-c2cc3nc(C)c(C)c(N4CCN(C(=O)c5ccoc5)CC4)n3n2)cc1`: 1200 nM; for `COc1cccc(-c2cc3nc(C)c(C)c(N4CCN(C(=O)c5ccoc5)CC4)n3n2)c1`: 3830 nM; for `O=C(c1ccoc1)N1CCN(c2cc(-c3ccccc3F)nc3cc(-c4ccccc4)nn23)CC1`: 3620 nM.
The same measure, in the same setting: with `CC(=O)N1CCN(c2cc(C)nc3cc(-c4cccc(F)c4)nn23)CC1` the entry was “inactive”; with `CC1CN(C(=O)OC(C)(C)C)CCN1c1cc(-c2ccco2)nc2cc(-c3ccccc3)nn12` (stereo unspecified), 3440 nM.
Regarding `Cc1nc2cc(-c3ccc(Br)cc3)nn2c(N2CCN(C(=O)c3ccoc3)CC2)c1C`, the EC50 was 10100 nM.
Turning to `Cc1cc(N2CCN(C(=O)c3ccco3)CC2)n2nc(-c3ccccc3)nc2n1`, the EC50 was 9430 nM.
Turning to `CC(=O)N1CCN(c2cc(-c3ccco3)nc3cc(-c4cccc(Cl)c4)nn23)CC1`, the EC50 is 626 nM.
Take `COc1ccc(-c2cc3nc(C)c(C)c(N4CCN(C(=O)c5ccco5)CC4)n3n2)cc1`: the EC50 is 2680 nM.
Same read-out and setting: with `COc1ccccc1-c1cc2nc(-c3ccco3)cc(N3CCN(C(=O)c4ccoc4)CC3)n2n1` the figure was 4270 nM.
In the case of `CN(CCN(C)c1cc(-c2ccco2)nc2cc(-c3ccccc3)nn12)C(=O)c1ccoc1`, the EC50 entry was “inactive”.
Still for that read-out and setting: the same measure for `COc1cccc(-c2cc3nc(-c4ccccc4)cc(N4CCN(C(=O)c5ccoc5)CC4)n3n2)c1`: 1920 nM.
The same measure, in the same setting: with `Cc1ccc(-c2nc3nc(C)cc(N4CCN(C(=O)c5ccco5)CC4)n3n2)cc1` the figure was 4170 nM; with `CC1CN(C(=O)c2ccoc2)CCN1c1cc(-c2ccco2)nc2cc(-c3ccccc3)nn12` (stereo unspecified), 2920 nM.
Still for that read-out and setting: the same measure for `COc1ccc(-c2cc3nc(-c4ccco4)cc(N4CCN(C(=O)c5ccoc5)CC4)n3n2)cc1`: 1800 nM; for `CNCCCN(C)c1cc(-c2ccco2)nc2cc(-c3ccccc3)nn12`: “inactive”; for `COc1cccc(-c2cc3nc(-c4ccco4)cc(N4CCN(C(C)=O)CC4)n3n2)c1`: 892 nM.
With `O=C(c1ccoc1)N1CCN(c2cc(-c3ccco3)nc3cc(-c4cccc(Cl)c4)nn23)CC1`, the EC50 was 2960 nM.
Still for that read-out and setting: with `O=C(c1ccoc1)N1CCN(c2cc(-c3ccco3)nc3cc(-c4ccccc4)nn23)CC1` the figure was 460 nM; with `O=C(c1ccco1)N1CCN(c2cc(-c3ccco3)nc3cc(-c4ccccc4)nn23)CC1`, 852 nM.
On the same count and under the same terms, with `O=C(c1ccoc1)N1CCN(c2cc(-c3ccccc3)nc3cc(-c4ccncc4)nn23)CC1` the figure was 1030 nM; with `COC(=O)c1cccc(-c2cc(N3CCN(C(=O)c4ccoc4)CC3)n3nc(-c4cccc(OC)c4)cc3n2)c1`, 1680 nM.
Consider `O=C(c1ccoc1)N1CCCN(c2cc(-c3ccco3)nc3cc(-c4ccccc4)nn23)C1`, for which the EC50 is 1220 nM.
`Cc1occc1C(=O)N1CCN(c2cc(-c3ccco3)nc3cc(-c4ccccc4)nn23)CC1`: the EC50 was 1690 nM.
On the same count and under the same terms, with `Cc1nc2cc(-c3ccccc3)nn2c(N2CCN(C(=O)c3ccoc3)CC2)c1C` the figure was 2000 nM; with `Cc1nc2cc(-c3ccc4c(c3)OCO4)nn2c(N2CCN(C(=O)c3ccoc3)CC2)c1C`, 613 nM; with `O=C(c1ccoc1)N1CCN(c2cc(-c3ccco3)nc3cc(-c4cccc(-c5ccco5)c4)nn23)CC1`, 503 nM.
For `Cc1nc2cc(-c3cccc(Cl)c3)nn2c(N2CCN(C(=O)c3ccoc3)CC2)c1C`, the EC50 is 9310 nM.
Still for that read-out and setting: the same measure for `COc1ccc(-c2cc3nc(C)c(C)c(N4CCN(C(C)=O)CC4)n3n2)cc1`: 6390 nM; for `CNCCN(C)c1cc(-c2ccco2)nc2cc(-c3ccccc3)nn12`: “inactive”; for `COc1cccc(-c2cc(N3CCN(C(=O)c4ccoc4)CC3)n3nc(-c4cccc(OC)c4)cc3n2)c1`: 540 nM.
As for `O=C(c1ccoc1)N1CCN(c2cc(-c3ccco3)nc3cc(-c4cccs4)nn23)CC1`, the EC50 is 2480 nM.
Same read-out and setting: with `O=C(c1ccoc1)N1CCN(c2cc(-c3cccs3)nc3cc(-c4ccccc4)nn23)CC1` the figure was 1660 nM; with `COc1cccc(-c2cc3nc(-c4ccco4)cc(N4CCN(C(=O)c5ccoc5)CC4)n3n2)c1`, 1860 nM; with `COc1ccc(-c2cc3nc(-c4ccccc4)cc(N4CCN(C(=O)c5ccoc5)CC4)n3n2)cc1`, 1620 nM.
Same read-out and setting: with `O=C(c1ccccc1)N1CCN(c2cc(-c3ccco3)nc3cc(-c4ccccc4)nn23)CC1` the figure was 1510 nM; with `O=C(c1ccco1)N1CCN(c2c3c(nc4cc(-c5ccc(F)cc5)nn24)CCC3)CC1`, 701 nM; with `O=C(c1ccoc1)N1CCN(c2cc(-c3ccc(F)cc3)nc3cc(-c4ccccc4)nn23)CC1`, 12100 nM.
Still for that read-out and setting: with `CN(CCCN(C)c1cc(-c2ccco2)nc2cc(-c3ccccc3)nn12)C(=O)c1ccoc1` the figure was 2720 nM; with `O=C(c1ccoc1)N1CCN(c2cc(-c3ccoc3)nc3cc(-c4ccccc4)nn23)CC1`, 1590 nM.
On to `COc1cccc(-c2cc3nc(C)c(C(C)C)c(N4CCN(C(=O)c5ccoc5)CC4)n3n2)c1`, for which the EC50 was 6020 nM.

The experiment is the same for the next values; noted with them: JC-1 efflux, at 50 µM (top of the series).
As to `COc1ccccc1-c1c(C)nn2c(N3CCN(C(=O)c4ccco4)CC3)cc(C)nc12`, the inhibition result is “inactive”.
